From ChEMBL document CHEMBL1201862, “PubChem BioAssay data set” (2004) come the findings set out here.

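48-hour exposure; five concentrations; linearly interpolated endpoints. GI50 is the concentration that inhibits growth by half.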 Activity calls are given as the source filed them. No stated cut-off is given here; in the data, active = GI50 up to about 1.1 µM and inactive = higher.

Some test systems named below: NCI-H522; DU-145; SF-268; KM12; T47D; A549; EKVX; ACHN; NCI-H23; U-251; UO-31; PC-3; MCF7; Hs-578T; A498; UACC-257; SK-MEL-2; HOP-62; SK-OV-3.
Holding throughout (experiment): NCI anticancer screen, dose series, 48 h

As to `O=C1CSC2(CC(/C=C/c3ccccc3[N+](=O)[O-])=NN2c2cccc(S(=O)(=O)O)c2)N1c1nc2ccccc2s1` (stereo unspecified), the GI50 in the assay with NCI-H522 is 11.6 µM (inactive); in the assay with DU-145, 12.5 µM (inactive); in the assay with SF-268, 16.8 µM (inactive); in the assay on KM12, 15.5 µM (inactive); with T47D, 12.8 µM (inactive); in the assay with A549, 18.7 µM (inactive). Besides, the GI50 in the assay with EKVX was 32.3 µM (inactive); with ACHN, 17.1 µM (inactive); in the assay with NCI-H23 it was 16.9 µM (inactive); with U-251 it was 14.5 µM (inactive); in the assay on UO-31, 14.2 µM (inactive); with PC-3, 15.3 µM (inactive). Besides, the GI50 was 12.5 µM (inactive) with MCF7; 22.3 µM (inactive) with Hs-578T; 18.2 µM (inactive) in the assay on A498; 37.2 µM (inactive) in the assay on UACC-257; 15.2 µM (inactive) with SK-MEL-2.

With `O=C1NCN(c2ccccc2)C12CCN(CCc1ccc3[nH]c(=S)[nH]c3c1)CC2`, the GI50 in the assay on NCI-H522 was 43.4 µM (inactive); in the assay with DU-145 it was 39.7 µM (inactive); with SF-268, 56.9 µM (inactive); with KM12 it was 27.9 µM (inactive); with T47D, 16.4 µM (inactive); in the assay on A549, 66.5 µM (inactive). The GI50 was 88.5 µM (inactive) with EKVX; > 100 µM (inactive) with ACHN; 65.9 µM (inactive) in the assay with NCI-H23; > 100 µM (inactive) with HOP-62; 29.4 µM (inactive) in the assay with U-251; 24.3 µM (inactive) in the assay on PC-3. Besides, the GI50 with MCF7 was 28.5 µM (inactive); in the assay on SK-OV-3, > 100 µM (inactive); in the assay on Hs-578T it was > 100 µM (inactive); with A498, 53.6 µM (inactive); with UACC-257 it was 0.075 µM (active); in the assay on SK-MEL-2, 20.7 µM (inactive).

With `Cc1ccc(S(=O)(=O)N2CCN(S(=O)(=O)c3ccc(C)cc3)CCN(S(=O)(=O)c3ccc(C)cc3)Cc3cc(Br)c(Br)cc3CN(S(=O)(=O)c3ccc(C)cc3)CC2)cc1`, the GI50 was 52 µM (inactive) in the assay on NCI-H522; > 100 µM (inactive) in the assay on DU-145; > 100 µM (inactive) in the assay with SF-268; 97.7 µM (inactive) with KM12; > 100 µM (inactive) in the assay with T47D; > 100 µM (inactive) in the assay with A549. In addition, the GI50 is 68.2 µM (inactive) in the assay on EKVX; > 100 µM (inactive) in the assay on ACHN; > 100 µM (inactive) in the assay with NCI-H23; > 100 µM (inactive) in the assay with HOP-62; 82 µM (inactive) in the assay on U-251; > 100 µM (inactive) with UO-31. In addition, the GI50 with PC-3 was 46.9 µM (inactive); with MCF7 it was > 100 µM (inactive); in the assay on SK-OV-3 it was > 100 µM (inactive); in the assay with Hs-578T it was > 100 µM (inactive); in the assay on A498, > 100 µM (inactive); in the assay with UACC-257 it was 37.2 µM (inactive).

Regarding `NC(Cc1ccc(S(=O)(=O)O)cc1)C(=O)NC(Cc1ccc(S(=O)(=O)O)cc1)C(=O)O` (stereo unspecified), the GI50 in the assay with NCI-H522, in the assay on DU-145, with SF-268, in the assay on KM12, with T47D and in the assay with A549 was > 100 µM (inactive) in each case. The GI50 with EKVX, in the assay with ACHN, with NCI-H23, with HOP-62, in the assay on U-251 and in the assay with UO-31 was > 100 µM (inactive) each time. Besides, the GI50 in the assay with PC-3, in the assay on MCF7, in the assay with Hs-578T, with A498, in the assay on UACC-257 and in the assay on SK-MEL-2 was > 100 µM (inactive) in each case.
